Data set [1] can be described thus: Inhibition of gamma-secretase in rat primary neuronal cells assessed as reduction in amyloid beta (1 to 42) production. Conditions: Primary neuron. It counts as cell-based.
Data set [2] in a line: Lipophilicity, log D of the compound at pH 7.4 by reversed phase chromatography. It counts as physicochemical. Conditions: buffer.
Data set [3] is described as follows: Inhibition of gamma-secretase in rat primary neuronal cells assessed as reduction in amyloid beta (1 to 40) production. The class given is cell-based. The note with it: Primary neuron.
A short description of data set [4]: Inhibition of gamma-secretase-mediated Notch processing in rat primary neuronal cells. Conditions: Primary neuron. It counts as cell-based.
The nature of data set [5]: Drug level in C57BL/6J mouse cortex at 10 mg/kg, po after 3 hrs. The class given is ADME, organism-based. Conditions: read-out: Drug uptake.
A short description of data set [6]: Drug level in C57BL/6J mouse plasma at 10 mg/kg, po after 3 hrs. It counts as ADME, organism-based.
For data set [7], the system named is Mus musculus. As to the kind of experiment: Reduction in amyloid beta (1 to 42) levels in C57BL/6J mouse brain at 10 mg/kg, po after 3 hrs. It counts as functional.
Data set [8] has as its system Mus musculus. In words: Reduction in amyloid beta (1 to 40) levels in C57BL/6J mouse brain at 10 mg/kg, po after 3 hrs. It counts as functional.
Data set [9] has as its system Mus musculus. In words: Reduction in amyloid beta (1 to 42) levels in C57BL/6J mouse plasma at 10 mg/kg, po after 3 hrs. It counts as functional.
For data set [10], the system named is Mus musculus. In words: Reduction in amyloid beta (1 to 40) levels in C57BL/6J mouse plasma at 10 mg/kg, po after 3 hrs. The class given is functional.

Where only a bound is given, the exact number is not on record here.

In general, IC50 refers to the midpoint of a concentration-inhibition curve. Broadly, the chromatographic logD is a lipophilicity value derived from retention on a column. Low values mean lower lipophilicity, high ones higher lipophilicity. `COc1cc(-c2nnc(Cc3ccc(Cl)c(Cl)c3)[nH]2)ccc1-c1cnc(C)o1`: the IC50 in data set [1] was 2000 nM. Also, the chromatographic logD in data set [2] was 4.1.
For `COc1cc(-c2nc3n(n2)CCCC3c2ccc(Cl)c(Cl)c2)ccc1-c1cnc(C)o1` (stereo not drawn) the same measures were 860 nM and 4.4.
In the same order, the values of `COc1cc(-c2nnc3n2CCCC3c2ccc(Cl)c(Cl)c2)ccc1-c1cnc(C)o1` (stereo not drawn) are 210 nM and 3.2.
For `COc1cc(-c2nnn3c2CCCC3c2ccc(Cl)c(Cl)c2)ccc1-c1cnc(C)o1` (stereo not drawn) the same measures were 210 nM and 4.2.
Take `COc1cc(-c2nnc3n2CCCCC3c2ccc(Cl)c(Cl)c2)ccc1-c1cnc(C)o1` (stereo not drawn): the concentration for half-maximal inhibition (IC50) in data set [1] was found to be 220 nM. In [2], the chromatographic logD stood at 3.5.
Regarding `COc1cc(-c2nnc3n2CCC3c2ccc(Cl)c(Cl)c2)ccc1-c1cnc(C)o1` (stereo not drawn), the IC50 in data set [1] stood at 630 nM. For the same molecule, in data set [2], the chromatographic logD is 3.3.
In the same order, the values of `COc1cc(-c2nnc3n2CCC=C3c2ccc(Cl)c(Cl)c2)ccc1-c1cnc(C)o1` are 600 nM and 3.6.
In the same order, the values of `COc1cc(-c2nnc3n2CCOC3c2ccc(Cl)c(Cl)c2)ccc1-c1cnc(C)o1` (stereo not drawn) are 530 nM and 3.1.
In the same order, the values of `COc1cc(-c2nnc3n2CCCC3c2ccc(Cl)cc2)ccc1-c1cnc(C)o1` (stereo not drawn) are 570 nM and 2.8.
Consider `COc1cc(-c2nnc3n2CCCC3c2ccc(C(F)(F)F)cc2)ccc1-c1cnc(C)o1` (stereo not drawn), for which, in data set [1], the IC50 was 510 nM. The chromatographic logD in [2] was 2.9.
For `COc1cc(-c2nnc3n2CCCC3c2ccc(F)cc2)ccc1-c1cnc(C)o1` (stereo not drawn) the same measures were 1500 nM and 2.4.
`COc1ccc(C2CCCn3c(-c4ccc(-c5cnc(C)o5)c(OC)c4)nnc32)cc1` (stereo not drawn): the IC50 in data set [1] was determined as 1900 nM. In data set [2], this molecule returned a chromatographic logD of 2.4.
In the same order, the values of `COc1cc(-c2nnc3n2CCCC3c2ccc(N3CCOCC3)cc2)ccc1-c1cnc(C)o1` (stereo not drawn) are 2300 nM and 2.3.
With `COc1cc(-c2nnc3n2CCCC3c2cccc(C(F)(F)F)c2)ccc1-c1cnc(C)o1` (stereo not drawn), the IC50 in data set [1] worked out at 370 nM. The molecule also gave a chromatographic logD in data set [2] of 2.8.
For `COc1cc(-c2nnc3n2CCCC3c2ccccc2C(F)(F)F)ccc1-c1cnc(C)o1` (stereo not drawn) the same measures were 380 nM and 3.
In the same order, the values of `COc1cc(-c2nnc3n2CCCC3c2ccc(Cl)c(C(F)(F)F)c2)ccc1-c1cnc(C)o1` (stereo not drawn) are 220 nM and 3.2.
Consider `COc1cc(-c2nnc3n2CCCC3c2cc(C(F)(F)F)ccc2C(F)(F)F)ccc1-c1cnc(C)o1` (stereo not drawn), for which the IC50 in [1] turned out to be 300 nM. For the same molecule, the chromatographic logD in data set [2] came out at 3.3.
In the same order, the values of `COc1cc(-c2nnc3n2CCCC3c2ccc(Cl)cc2C(F)(F)F)ccc1-c1cnc(C)o1` (stereo not drawn) are 84 nM and 3.5.
In the same order, the values of `COc1cc(-c2nnc3n2CCC[C@H]3c2ccc(Cl)cc2C(F)(F)F)ccc1-c1cnc(C)o1` are 830 nM and 3.5.
With `COc1cc(-c2nnc3n2CCC[C@@H]3c2ccc(Cl)cc2C(F)(F)F)ccc1-c1cnc(C)o1`, the IC50 in [1] is 60 nM; in [3], 490 nM; in [4], above 10000 nM. This molecule showed a chromatographic logD in [2] of 3.5. For the same molecule, the concentration at 3 h in data set [5] came out at 2330 ng/g; in [6], 6450 ng/mL. In addition, the % of vehicle at 10 mg/kg in the data set with Mus musculus [7] came to 50%; with Mus musculus [8] it was 75%; in the data set with Mus musculus [9] it was 31%; in the data set on Mus musculus [10] it was 63%.

The values are drawn from ChEMBL document CHEMBL3616383, “Discovery of novel 5,6,7,8-tetrahydro[1,2,4]triazolo[4,3-a]pyridine derivatives as γ-secretase modulators” (Bioorg Med Chem Lett, 2015).
